Experimental findings from PubChem BioAssay (NCI) are described below.

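How tested: cells in 96-well plates exposed to compound for 48 hours at five concentrations. Abbreviation: GI50, concentration required for 50% inhibition of growth. TGI: total growth inhibition.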

Test systems include HCC-2998 colon; BT-549 breast; SR leukemia; NCI-H460 lung; CCRF-CEM leukemia; RPMI-8226 leukemia; MALME-3M melanoma; HCT-116 colon; 786-0 renal; MDA-MB-231 breast.
Experiment in all cases: inhibition of tumour cell growth, NCI panel, 48 h

In the case of `NNC(=O)C(O)C(O)C(O)CO` (configuration not stated), the TGI in the assay on HCC-2998 colon, in the assay with BT-549 breast, in the assay on SR leukemia, in the assay on NCI-H460 lung, with CCRF-CEM leukemia and in the assay on RPMI-8226 leukemia was > 100 µM throughout. The TGI in the assay on MALME-3M melanoma, in the assay on HCT-116 colon, with 786-0 renal and in the assay on MDA-MB-231 breast was > 100 µM throughout.

As for `CC1=CC[C@@H]2[C@@H](CC[C@@]2(C)O)C(C)(C)[C@H]1CC[C@@H]1[C@@]2(C)CC[C@@H](O)C(C)(C)O[C@@H]2CC[C@]1(C)O`, the TGI worked out at 33.4 µM in the assay on HCC-2998 colon; 44 µM with BT-549 breast; 42.8 µM with SR leukemia; 34.8 µM in the assay with NCI-H460 lung; 52.3 µM in the assay on RPMI-8226 leukemia; 27 µM with HCT-116 colon. Further, the TGI in the assay with 786-0 renal was determined as 34.8 µM; in the assay with MDA-MB-231 breast, 34.5 µM.

Regarding `O=c1ncc(I)c[nH]1`, the GI50 with HCC-2998 colon, with BT-549 breast, in the assay with SR leukemia, in the assay with NCI-H460 lung, in the assay on CCRF-CEM leukemia and with RPMI-8226 leukemia was > 100 µM throughout. The GI50 in the assay with MALME-3M melanoma, in the assay on HCT-116 colon, with 786-0 renal and in the assay on MDA-MB-231 breast was > 100 µM in each case. Moreover, the TGI in the assay with HCC-2998 colon, with BT-549 breast, in the assay on SR leukemia, in the assay on NCI-H460 lung, in the assay on CCRF-CEM leukemia and in the assay on RPMI-8226 leukemia was > 100 µM throughout. The TGI in the assay on MALME-3M melanoma, in the assay with HCT-116 colon, in the assay on 786-0 renal and in the assay on MDA-MB-231 breast was > 100 µM in each case.

On to `CS(=O)(=O)c1nccc(-c2c(-c3cccc(OCc4ccccc4)c3)nc3sccn23)n1`, for which the GI50 was 3.49 µM with HCC-2998 colon; 11.6 µM in the assay on BT-549 breast; 4.49 µM in the assay on SR leukemia; > 83.5 µM in the assay on NCI-H460 lung; > 30.1 µM in the assay on CCRF-CEM leukemia; 9.24 µM in the assay with RPMI-8226 leukemia. For the same compound, the GI50 in the assay with MALME-3M melanoma was 16.4 µM; with HCT-116 colon, 7.16 µM; in the assay on 786-0 renal it was 12.9 µM; in the assay with MDA-MB-231 breast, 16.2 µM. The TGI in the assay on HCC-2998 colon is 8.36 µM; with BT-549 breast, > 100 µM; in the assay on SR leukemia it was > 100 µM; with NCI-H460 lung it was > 100 µM; with CCRF-CEM leukemia it was > 100 µM; in the assay on RPMI-8226 leukemia it was > 32.3 µM. Further, the TGI in the assay with MALME-3M melanoma, in the assay on HCT-116 colon, in the assay on 786-0 renal and with MDA-MB-231 breast was > 100 µM in each case.

As to `C[C@@]1([C@H](OC(=O)c2cccc3ccccc23)C(N)=O)CO1`, the GI50 was 4.51 µM in the assay with HCC-2998 colon; 6.15 µM in the assay with BT-549 breast; 5.5 µM in the assay with NCI-H460 lung; 1.1 µM with CCRF-CEM leukemia; 0.668 µM in the assay on RPMI-8226 leukemia; 3.18 µM with MALME-3M melanoma. For the same compound, the GI50 is 0.368 µM in the assay on HCT-116 colon, 1.84 µM in the assay on 786-0 renal and 1.27 µM in the assay on MDA-MB-231 breast. Moreover, the TGI was 18.2 µM in the assay on HCC-2998 colon; 21.8 µM with BT-549 breast; > 30.1 µM in the assay with NCI-H460 lung; > 100 µM in the assay on CCRF-CEM leukemia; 9.04 µM in the assay with RPMI-8226 leukemia; 11.2 µM with MALME-3M melanoma. The figures for the TGI in the assay with HCT-116 colon, in the assay on 786-0 renal and in the assay with MDA-MB-231 breast were 8.43 µM, 14.6 µM and 9.12 µM, respectively.

As to `COc1ccc(-c2c(-c3cc4c(c(OC)c3OC)OCO4)noc2N)cc1`, the GI50 was 0.575 µM in the assay on HCC-2998 colon; 0.507 µM in the assay on BT-549 breast; 0.0376 µM with SR leukemia; 0.379 µM in the assay with NCI-H460 lung; 0.4 µM in the assay with CCRF-CEM leukemia; 0.503 µM in the assay with RPMI-8226 leukemia. Further, the GI50 was 0.34 µM in the assay on HCT-116 colon, 0.49 µM in the assay on 786-0 renal and 2.32 µM with MDA-MB-231 breast. The TGI in the assay with HCC-2998 colon is 6.96 µM; in the assay with BT-549 breast, 17 µM; in the assay with SR leukemia, 69.8 µM; with NCI-H460 lung, > 45.2 µM; in the assay with CCRF-CEM leukemia, > 100 µM; in the assay with RPMI-8226 leukemia it was 50.9 µM. Besides, the TGI was 15.9 µM in the assay with HCT-116 colon, 41.6 µM in the assay with 786-0 renal and > 62.9 µM with MDA-MB-231 breast.

Regarding `O=C(NCCN1CCOCC1)Nc1nc2ccc(Sc3nnc4ccc(-c5ccc(F)cc5)nn34)cc2s1`, the GI50 in the assay with HCC-2998 colon is 17.3 µM; with BT-549 breast it was 2.62 µM; in the assay on SR leukemia, 5.04 µM; in the assay with MALME-3M melanoma, 3.12 µM; in the assay on HCT-116 colon, 6.88 µM; in the assay with 786-0 renal, 1.59 µM. In addition, the GI50 in the assay with MDA-MB-231 breast was 3 µM. Besides, the TGI in the assay with HCC-2998 colon was > 100 µM; in the assay with BT-549 breast, > 27.8 µM; in the assay with SR leukemia it was > 100 µM; in the assay on NCI-H460 lung, > 100 µM; in the assay on CCRF-CEM leukemia it was > 100 µM; with MALME-3M melanoma, > 21.1 µM. In addition, the TGI is > 100 µM with HCT-116 colon, 5.39 µM in the assay on 786-0 renal and > 21.6 µM with MDA-MB-231 breast.

For the compound `N=C(N)c1ccc(CS(=O)(=O)F)cc1`, the GI50 with HCC-2998 colon, in the assay on BT-549 breast, with NCI-H460 lung, with MALME-3M melanoma, in the assay on HCT-116 colon and in the assay with 786-0 renal was > 100 µM in each case. In the assay with MDA-MB-231 breast, the GI50 is > 100 µM. In addition, the TGI with HCC-2998 colon, in the assay on BT-549 breast, with NCI-H460 lung, in the assay with MALME-3M melanoma, in the assay with HCT-116 colon and with 786-0 renal was > 100 µM each time. Besides, the TGI in the assay on MDA-MB-231 breast was > 100 µM.

For `CC(C)(C)n1nc(C2CC2)cc1NC(=O)Nc1ccc(Cl)cc1`, the TGI in the assay on HCC-2998 colon, in the assay with BT-549 breast, with NCI-H460 lung, in the assay with RPMI-8226 leukemia, in the assay on MALME-3M melanoma and with HCT-116 colon was > 100 µM throughout. Also, the TGI in the assay on 786-0 renal and with MDA-MB-231 breast was > 100 µM throughout.
